Laboratory results published in patent US20250019398A1, “NONAMERIC PEPTIDE HAVING EXCELLENT ANTIBACTERIAL ACTIVITY AGAINST GRAM-NEGATIVE BACTERIA AND ENANTIOMER THEREOF” (priority 2021, published 2025).
In brackets after ≈: the same amount, converted by molar mass. Read-outs that look alike come from different tables or passages of the source.

Assays:
[1] = tested on: carbapenem-resistant E. coli NCCP16044 (CREC 16044); experiment: microbe, parasite or virus in culture; format: cell-based; details: 16 hours, read-out: Minimal inhibitory concentration (MIC), CREC 16044
Description: (§1) Among the bacterial strains used in the experiment, Escherichia coli KCTC 1682 was obtained from the Korean Collection for Type Cultures (KCTC) (Jeongeup, Korea), Acinetobacter baumannii KCCM 40203 and Pseudomonas aeruginosa KCCM 11328 were obtained from the Korean Culture Center of Microorganisms (KCCM) (Seoul, Korea), and Klebsiella pneumonia NCCP 16054 was obtained from the National Culture Collection for Pathogens (NCCP) (Osong, Korea). In addition, carbapenem-resistant E. coli NCCP16044 and carbapenem-resistant Klebsiella pneumonia NCCP 15782 were obtained from the NCCP, and three types of carbapenem-resistant A. baumanii CCARM 12004-6 were obtained from the Culture Collection of Antimicrobial Resistance Microbes (CCARM) (Cheongju City, Korea). The E. coli K1 (ATCC700973) strain used in the animal experiments was obtained from the American Type Culture Collection (ATCC) ([…]).
(§2) The antimicrobial activities of the peptides were measured by a minimal inhibitory concentration (MIC) analysis. The MIC was determined using a broth dilution method. All bacterial strains were grown overnight at 37° C. in a Muller-Hinton (MH) medium.

[2] = tested on: Escherichia coli KCTC 1682; experiment: MIC, broth dilution; format: cell-based; details: standard Gram-negative bacteria, 16 hours, read-out: Minimal inhibitory concentration (MIC), E. coli
Description: In addition, carbapenem-resistant E. coli NCCP16044 and carbapenem-resistant Klebsiella pneumonia NCCP 15782 were obtained from the NCCP, and three types of carbapenem-resistant A. baumanii CCARM 12004-6 were obtained from the Culture Collection of Antimicrobial Resistance Microbes (CCARM) (Cheongju City, Korea). The E. coli K1 (ATCC700973) strain used in the animal experiments was obtained from the American Type Culture Collection (ATCC) ([…]).
as §2

CRAB 12006 = experiment: Crystal violet biofilm inhibition; format: cell-based, A. baumannii; details: 0-32 μM, 16 h
Procedure: A crystal-violet-based assay was used to investigate the biofilm inhibition ability of R-Pro9-3D against A. baumannii standard bacteria and a CRAB 12006 line. […] Thereafter, bacterial cells were fixed with methanol (100%, 15 minutes) and then stained with crystal violet (0.1% (w/v) in 0.25% (v/v) acetic acid for 1 hour). The plate was washed with distilled H2O, dried and dissolved in ethanol (100% v/v). Color development, which indicates the extent of biofilm, was measured at 595 nm and expressed as biofilm formation percentage.

intact CRAB bacteria = experiment: diSC3-5 membrane depolarization; format: cell-based, A. baumannii; details: 4 μM
Procedure: Depolarization ability by peptides was measured using a membrane potential-sensitive dye 3,3′-dipropylthiadicarbocyanine iodide (diSC3-5) using intact CRAB bacteria. CRAB cells were washed using a wash buffer (5 mM HEPES, 20 mM glucose, pH 7.4). The cells were resuspended in a dilution buffer (5 mM HEPES, 20 mM glucose, 0.1 M KCl, pH 7.4) and then cultured with a diSC3-5 dye (1 hour). Finally, the fluorescence changes of cells treated with various concentrations of peptides, a negative control (cells with dye) and a positive control (1% Triton X-100) were recorded using a fluorescence spectrophotometer, and the results are expressed as percent depolarization.

[3] = tested on: CRAB 12005 (carbapenem-resistant A. baumanii CCARM); experiment: MIC, broth dilution; format: cell-based, A. baumannii; details: 16 hours, read-out: Minimal inhibitory concentration (MIC), CRAB 12005
Description: as §1, §2

[4] = tested on: CRAB 12004 (carbapenem-resistant A. baumanii CCARM); experiment: MIC, broth dilution; format: cell-based, A. baumannii; details: 16 hours, read-out: Minimal inhibitory concentration (MIC), CRAB 12004
Description: as §1, §2

[5] = tested on: CRAB 12006 (carbapenem-resistant A. baumanii CCARM); experiment: MIC, broth dilution; format: cell-based, A. baumannii; details: 16 hours, read-out: Minimal inhibitory concentration (MIC), CRAB 12006
Description: as §1, §2

[6] = tested on: Klebsiella pneumonia NCCP 16054; experiment: MIC, broth dilution; format: cell-based; details: standard Gram-negative bacteria, 16 hours
Description: as §1, §2

[7] = tested on: carbapenem-resistant Klebsiella pneumonia NCCP 15782 (CRKP 15782); experiment: MIC, broth dilution; format: cell-based; details: 16 hours
Description: as §1, §2

[8] = tested on: Acinetobacter baumannii KCCM 40203; experiment: MIC, broth dilution; format: cell-based; details: standard Gram-negative bacteria, 16 hours
Description: as §1, §2

[9] = tested on: Pseudomonas aeruginosa KCCM 11328; experiment: MIC, broth dilution; format: cell-based; details: standard Gram-negative bacteria, 16 hours
Description: as §1, §2

SMILES	MIC ([1]; Escherichia coli) [µM]	MIC ([2]; Escherichia coli, KCTC1682) [µM]	Biofilm formation inhibition, CRAB 12006 (CRAB 12006)	Depolarization (intact CRAB bacteria) [%]	MIC [1] [µM]	MIC [3] [µM]	MIC [4] [µM]	MIC [5] [µM]	MIC [2] [µM]	Minimal inhibitory concentration (MIC), K. pneumonia [6] [µM]	Minimal inhibitory concentration (MIC), CRKP 15782 [7] [µM]	Minimal inhibitory concentration (MIC), A. baumannii [8] [µM]	Minimal inhibitory concentration (MIC), P. aeruginosa [9] [µM]
C[C@@H](O)[C@H]1C(=O)N2C(C(=O)O)=C(S[C@@H]3CN[C@H](C(=O)N(C)C)C3)[C@H](C)[C@H]12 [Meropenem]	8 (≈ 3.07 µg/mL)	0.25 (≈ 0.0959 µg/mL)	remarkably lower	–	–	–	–	–	–	–	–	–	–
CC[C@H](C)[C@H](NC(=O)CN)C(=O)NCC(=O)N[C@@H](C)C(=O)N[C@H](C(=O)N[C@@H](CC(C)C)C(=O)N[C@@H](CCCCN)C(=O)N[C@H](C(=O)N[C@@H](CC(C)C)C(=O)N[C@H](C(=O)N[C@H](C(=O)NCC(=O)N[C@@H](CC(C)C)C(=O)N1CCC[C@H]1C(=O)N[C@@H](C)C(=O)N[C@@H](CC(C)C)C(=O)N[C@H](C(=O)N[C@@H](CO)C(=O)N[C@@H](Cc1c[nH]c2ccccc12)C(=O)N[C@H](C(=O)N[C@@H](CCCCN)C(=O)N[C@@H](CCCNC(=N)N)C(=O)N[C@@H](CCCCN)C(=O)N[C@@H](CCCNC(=N)N)C(=O)N[C@@H](CCC(N)=O)C(=O)N[C@@H](CCC(N)=O)C(N)=O)[C@@H](C)CC)[C@@H](C)CC)[C@@H](C)O)[C@@H](C)O)C(C)C)C(C)C [Melittin]	–	–	–	75.6	8 (≈ 22.8 µg/mL)	4 (≈ 11.4 µg/mL)	4 (≈ 11.4 µg/mL)	4 (≈ 11.4 µg/mL)	8 (≈ 22.8 µg/mL)	32 (≈ 91.1 µg/mL)	32 (≈ 91.1 µg/mL)	4 (≈ 11.4 µg/mL)	16 (≈ 45.5 µg/mL)
